pIC50: −log10 of the molar value.
Columns and labels:
Bacillus cereus [1] = assay: Antimicrobial activity against Bacillus cereus ATCC 10702 NCTC 8035 by serial microdilution method; format: functional
Staphylococcus aureus [2] = assay: Bactericidal against Staphylococcus aureus ATCC 6538 P FDA 209P by serial microdilution method; format: functional
T98G = assay: Cytotoxicity against human T98G cells assessed as number of viable cells measured after 48 hrs by MTT based colorimetric assay; format: functional, cell-based
Homo sapiens [3] = species: Homo sapiens; assay: Selectivity index, ratio of IC50 for human Chang liver cells to IC50 for human PC-3 cells
Homo sapiens [4] = species: Homo sapiens; assay: Selectivity index, ratio of IC50 for human Chang liver cells to IC50 for human SK-OV-3 cells
M-HeLa = assay: Cytotoxicity against human HelaM cells assessed as number of viable cells measured after 48 hrs by MTT based colorimetric assay; format: functional, cell-based
MCF7 = assay: Cytotoxicity against human MCF7 cells assessed as number of viable cells measured after 48 hrs by MTT based colorimetric assay; format: functional, cell-based; details: MCF7, 48 h
Escherichia coli [5] = assay: Antimicrobial activity against Escherichia coli ATCC 25922 by serial microdilution method; format: functional
Enterococcus faecalis [6] = assay: Antimicrobial activity against Enterococcus faecalis ATCC 29212 by serial microdilution method; format: functional
A549 = assay: Cytotoxicity against human A549 cells assessed as number of viable cells measured after 48 hrs by MTT based colorimetric assay; format: functional, cell-based; details: A549, 48 h
Homo sapiens [7] = species: Homo sapiens; assay: Selectivity index, ratio of IC50 for human Chang liver cells to IC50 for human DU-145 cells
SK-OV-3 = assay: Cytotoxicity against human SK-OV-3 cells assessed as number of viable cells measured after 48 hrs by MTT based colorimetric assay; format: functional, cell-based; details: SK-OV-3, 48 h
Homo sapiens [8] = species: Homo sapiens; assay: Selectivity index, ratio of IC50 for human Chang liver cells to IC50 for human HuTu80 cells
Bacillus cereus [9] = assay: Bactericidal activity against Bacillus cereus ATCC 10702 NCTC 8035 by serial microdilution method; format: functional
[10] = Cytotoxicity against human WI-38 cells assessed as number of viable cells measured after 48 hrs by MTT based colorimetric assay; format: toxicity, cell-based
Homo sapiens [11] = species: Homo sapiens; assay: Selectivity index, ratio of IC50 for human Chang liver cells to IC50 for human MCF7 cells
[12] = Cytotoxicity against human Chang liver cells assessed as number of viable cells measured after 48 hrs by MTT based colorimetric assay; format: toxicity, cell-based
DU-145 = assay: Cytotoxicity against human DU-145 cells assessed as number of viable cells measured after 48 hrs by MTT based colorimetric assay; format: functional, cell-based; details: DU-145, 48 h
PC-3 = assay: Cytotoxicity against human PC-3 cells assessed as number of viable cells measured after 48 hrs by MTT based colorimetric assay; format: functional, cell-based; details: PC-3, 48 h
HuTu80 [13] = assay: Cytotoxicity against human HuTu80 cells assessed as number of viable cells measured after 48 hrs by MTT based colorimetric assay; format: functional, cell-based; details: HuTu80, 48 h
Enterococcus faecalis [14] = assay: Bactericidal activity against Enterococcus faecalis ATCC 29212 by serial microdilution method; format: functional
PANC-1 = assay: Cytotoxicity against human PANC-1 cells assessed as number of viable cells measured after 48 hrs by MTT based colorimetric assay; format: functional, cell-based; details: PANC-1, 48 h
Escherichia coli [15] = assay: Bactericidal activity against Escherichia coli ATCC 25922 by serial microdilution method; format: functional
HepG2 = assay: Cytotoxicity against human HepG2 cells assessed as number of viable cells measured after 48 hrs by MTT based colorimetric assay; format: functional, cell-based; details: HepG2, 48 h
Staphylococcus aureus [16] = assay: Antimicrobial activity against Staphylococcus aureus ATCC 6538 P FDA 209P by serial microdilution method; format: functional
[17] = Selectivity index, ratio of IC50 for human WI-38 cells to IC50 for human T98G cells; format: toxicity; details: WI-38 cells and T98G cells, read-out: Ratio IC50
Homo sapiens [18] = species: Homo sapiens; assay: Selectivity index, ratio of IC50 for human WI-38 cells to IC50 for human HuTu80 cells
[19] = Selectivity index, ratio of IC50 for human WI-38 cells to IC50 for human A549 cells; format: toxicity; details: WI-38 cells and A549 cells, read-out: Ratio IC50
[20] = Selectivity index, ratio of IC50 for human WI-38 cells to IC50 for human MCF7 cells; format: toxicity; details: WI-38 cells and MCF7 cells, read-out: Ratio IC50
HuTu80 [21] = assay: Induction of ROS production in human HuTu80 cells assessed as increase in fluorescence intensity at 5 uM measured after 48 hrs by flow cytometry based analysis (reference value: 380); format: functional
HuTu80 [22] = assay: Induction of apoptosis in human HuTu80 cells assessed as early apoptotic cells at 10 uM incubated for 48 hrs by annexin V FITC/propidium iodide staining based flow cytometry analysis (reference value: 1.74%); format: functional
HuTu80 [23] = assay: Induction of ROS production in human HuTu80 cells assessed as increase in fluorescence intensity at 10 uM measured after 48 hrs by flow cytometry based analysis (reference value: 380); format: functional
HuTu80 [24] = assay: Induction of cell cycle arrest in human HuTu80 cells assessed as accumulation of cell at S phase at 10 uM measured after 48 hrs by propidium iodide staining based analysis (reference value: 8.1%); format: functional
HuTu80 [25] = assay: Induction of cell cycle arrest in human HuTu80 cells assessed as accumulation of cell at G1/G0 phase at 5 uM measured after 48 hrs by propidium iodide staining based analysis (reference value: 72%); format: functional
HuTu80 [26] = assay: Induction of apoptosis in human HuTu80 cells assessed as early apoptotic cells at 5 uM incubated for 48 hrs by annexin V FITC/propidium iodide staining based flow cytometry analysis (reference value: 1.74%); format: functional
HuTu80 [27] = assay: Induction of apoptosis in human HuTu80 cells assessed as viable cells at 10 uM incubated for 48 hrs by annexin V FITC/propidium iodide staining based flow cytometry analysis (reference value: 93.71%); format: functional; details: read-out: Activity
HuTu80 [28] = assay: Induction of mitochondrial membrane potential loss in human HuTu80 cells assessed as J-monomer green fluorescence intensity at 10 uM incubated for 24 hrs by JC10 staining based flow cytometry method (reference value: 5.7%); format: functional
HuTu80 [29] = assay: Induction of mitochondrial membrane potential loss in human HuTu80 cells assessed as J-aggregates red fluorescence intensity at 5 uM incubated for 24 hrs by JC10 staining based flow cytometry method (reference value: 94.4%); format: functional
HuTu80 [30] = assay: Induction of apoptosis in human HuTu80 cells assessed as late apoptotic cells at 5 uM incubated for 48 hrs by annexin V FITC/propidium iodide staining based flow cytometry analysis (reference value: 0.00%); format: functional
HuTu80 [31] = assay: Induction of cell cycle arrest in human HuTu80 cells assessed as accumulation of cell at G2/M phase at 10 uM measured after 48 hrs by propidium iodide staining based analysis (reference value: 18.7%); format: functional
HuTu80 [32] = assay: Induction of mitochondrial membrane potential loss in human HuTu80 cells assessed as J-monomer green fluorescence intensity at 5 uM incubated for 24 hrs by JC10 staining based flow cytometry method (reference value: 5.7%); format: functional
HuTu80 [33] = assay: Induction of apoptosis in human HuTu80 cells assessed as late apoptotic cells at 10 uM incubated for 48 hrs by annexin V FITC/propidium iodide staining based flow cytometry analysis (reference value: 0.00%); format: functional
HuTu80 [34] = assay: Induction of apoptosis in human HuTu80 cells assessed as necrotic cells at 10 uM incubated for 48 hrs by annexin V FITC/propidium iodide staining based flow cytometry analysis (reference value: 4.56%); format: functional
HuTu80 [35] = assay: Induction of cell cycle arrest in human HuTu80 cells assessed as accumulation of cell at S phase at 5 uM measured after 48 hrs by propidium iodide staining based analysis (reference value: 8.1%); format: functional
HuTu80 [36] = assay: Induction of mitochondrial membrane potential loss in human HuTu80 cells assessed as J-aggregates red fluorescence intensity at 10 uM incubated for 24 hrs by JC10 staining based flow cytometry method (reference value: 94.4%); format: functional
Homo sapiens [37] = species: Homo sapiens; assay: Selectivity index, ratio of IC50 for human Chang liver cells to IC50 for human HelaM cells
HuTu80 [38] = assay: Induction of cell cycle arrest in human HuTu80 cells assessed as accumulation of cell at G2/M phase at 5 uM measured after 48 hrs by propidium iodide staining based analysis (reference value: 18.7%); format: functional
HuTu80 [39] = assay: Induction of cell cycle arrest in human HuTu80 cells assessed as accumulation of cell at G1/G0 phase at 10 uM measured after 48 hrs by propidium iodide staining based analysis (reference value: 72%); format: functional
HuTu80 [40] = assay: Induction of apoptosis in human HuTu80 cells assessed as necrotic cells at 5 uM incubated for 48 hrs by annexin V FITC/propidium iodide staining based flow cytometry analysis (reference value: 4.56%); format: functional
HuTu80 [41] = assay: Induction of apoptosis in human HuTu80 cells assessed as viable cells at 5 uM incubated for 48 hrs by annexin V FITC/propidium iodide staining based flow cytometry analysis (reference value: 93.71%); format: functional; details: read-out: Activity

Structure (SMILES): CCCCC/C=C\C/C=C\CCCCCCCC(=O)OCC(COC(=O)CCCC[P+](c1ccccc1)(c1ccccc1)c1ccccc1)OC(=O)CCCC[P+](c1ccccc1)(c1ccccc1)c1ccccc1 (stereo not given)
- MIC (Bacillus cereus [1]): 6.4 µM
- MBC (Staphylococcus aureus [2]): 3.2 µM
- pIC50 (T98G): 4.29
- Ratio IC50 (Homo sapiens [3]): 1.1
- Ratio IC50 (Homo sapiens [4]): 1.1
- pIC50 (M-HeLa): 4.27
- pIC50 (MCF7): 4.61
- MIC (Escherichia coli [5]): 6.4 µM
- MIC (Enterococcus faecalis [6]): 12.8 µM
- pIC50 (A549): 4.15
- Ratio IC50 (Homo sapiens [7]): 1.5
- pIC50 (SK-OV-3): 4.40
- Ratio IC50 (Homo sapiens [8]): 5
- MBC (Bacillus cereus [9]): 500 µM
- IC50 at 48 h [10]: 41.1 µM
- Ratio IC50 (Homo sapiens [11]): 1.8
- IC50 at 48 h [12]: 45 µM
- pIC50 (DU-145): 4.53
- pIC50 (PC-3): 4.39
- pIC50 (HuTu80 [13]): 5.05
- MBC (Enterococcus faecalis [14]): 51.2 µM
- pIC50 (PANC-1): 4.33
- MBC (Escherichia coli [15]): 12.8 µM
- pIC50 (HepG2): 4.19
- MIC (Staphylococcus aureus [16]): 3.2 µM

Structure (SMILES): C=C(C)[C@@H]1CC[C@]2(COCC(O)COC(=O)CCCC[P+](c3ccccc3)(c3ccccc3)c3ccccc3)CC[C@]3(C)[C@H](CC[C@@H]4[C@@]5(C)CC[C@H](O)C(C)(C)[C@@H]5CC[C@]43C)[C@@H]12 (stereo not given in full)
- pIC50 (T98G): 5.39
- selectivity ratio [17]: 1.1
- pIC50 (M-HeLa): 4.94
- pIC50 (MCF7): 5.82
- Ratio IC50 (Homo sapiens [18]): 15.7
- pIC50 (A549): 5.51
- IC50 at 48 h [10]: 4.7 µM
- pIC50 (PC-3): 5.10
- pIC50 (HuTu80 [13]): 6.52
- selectivity ratio [19]: 1.5
- selectivity ratio [20]: 3.1

Structure (SMILES): CCCCC/C=C\C/C=C\CCCCCCCC(=O)OCC(O)COC(=O)CCCC[P+](c1ccccc1)(c1ccccc1)c1ccccc1.[Br-] (stereo not given)
- MIC (Bacillus cereus [1]): 20 µM
- Flu intensity (HuTu80 [21]): 1000
- Activity (HuTu80 [22]): 5.67%
- Flu intensity (HuTu80 [23]): 1700
- MBC (Staphylococcus aureus [2]): 5 µM
- Activity (HuTu80 [24]): 5.4%
- pIC50 (T98G): 4.01
- Activity (HuTu80 [25]): 81%
- Activity (HuTu80 [26]): 3.99%
- Ratio IC50 (Homo sapiens [4]): 1.6
- viability at 10 µM (HuTu80 [27]): 56.2%
- pIC50 (M-HeLa): 4.25
- Activity (HuTu80 [28]): 38.1%
- Activity (HuTu80 [29]): 73.9%
- pIC50 (MCF7): 4.42
- Activity (HuTu80 [30]): 13.1%
- Activity (HuTu80 [31]): 9.3%
- Activity (HuTu80 [32]): 26.1%
- MIC (Escherichia coli [5]): 20 µM
- MIC (Enterococcus faecalis [6]): 20 µM
- Activity (HuTu80 [33]): 19.59%
- Activity (HuTu80 [34]): 18.56%
- pIC50 (A549): 4.20
- Ratio IC50 (Homo sapiens [7]): 1.3
- pIC50 (SK-OV-3): 4.40
- Ratio IC50 (Homo sapiens [8]): 6.6
- Activity (HuTu80 [35]): 5.7%
- IC50 at 48 h [10]: 56.6 µM
- Ratio IC50 (Homo sapiens [11]): 1.7
- IC50 at 48 h [12]: 63 µM
- Activity (HuTu80 [36]): 61.9%
- Ratio IC50 (Homo sapiens [37]): 1.1
- pIC50 (DU-145): 4.31
- Activity (HuTu80 [38]): 11%
- pIC50 (PC-3): 4.19
- pIC50 (HuTu80 [13]): 5.02
- Activity (HuTu80 [39]): 82%
- MBC (Enterococcus faecalis [14]): 80 µM
- Activity (HuTu80 [40]): 10.7%
- pIC50 (PANC-1): 4.23
- MBC (Escherichia coli [15]): 80 µM
- pIC50 (HepG2): 4.12
- viability at 5 µM (HuTu80 [41]): 72.2%
- MIC (Staphylococcus aureus [16]): 5 µM

Source: ChEMBL document CHEMBL5252638, “Novel triphenylphosphonium amphiphilic conjugates of glycerolipid type: synthesis, cytotoxic and antibacterial activity, and targeted cancer cell delivery” (RSC Med Chem, 2023)
